Among the data in PubChem BioAssay (NCI) are GI50 and TGI values, retold here.

What all share (test): inhibition of tumour cell growth, NCI panel, 48 h
The subject of assay [1] is RPMI-8226 leukemia.
Assay [2] relates to HOP-62 NSCLC.
Assay [3] has as its system SF-539 CNS.
The subject of assay [4] is NCI-H23 lung.
In assay [5] the test system is UO-31 renal.
For assay [6], the system named is NCI-H522 lung.
Assay [7] deals with SR leukemia.
In assay [8] the test system is MALME-3M melanoma.
The subject of assay [9] is A549 NSCLC.
Assay [10] has as its system SW-620 colon.

“And” between values parts separate entries of the source, which are not always exact repeats. Identical values can stand only once.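 Grown in 96-well plates, cells were treated for 48 hours with each compound at five concentrations. Insufficient inhibition: endpoint recorded as highest concentration tested. Here, GI50 denotes the concentration required for 50% inhibition of growth. TGI is the concentration that stops growth completely.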

Take `NC(=O)c1cc(I)ccc1NC(=O)/C=C/c1ccccc1`: the GI50 in assay [1] is 0.357 µM; in [2] it was 1.12 µM; in assay [3], 0.36 µM; in assay [4], 1 µM; in assay [5], 1.77 µM; in assay [6], 1.07 µM. Moreover, the GI50 in assay [7] is 0.419 µM; in assay [8], 2.1 µM; in assay [9] it was 1.33 µM; in [10], 0.48 µM. The TGI was 4.96 µM in [1]; 23.8 µM in assay [2]; 1.53 µM in [3]; > 44.9 µM in [4]; > 48.9 µM in [5]; > 100 µM in assay [8]. For the same molecule, the TGI in assay [9] and in assay [10] was > 100 µM each time.
On to `CCOc1ccc(OCC(=O)O)c2c1CCCC2=O`, for which the TGI in [1], in [2], in assay [3], in assay [4], in [5] and in assay [6] was > 100 µM each time. Besides, the TGI in assay [7], in assay [8], in assay [9] and in assay [10] was > 100 µM each time.
On to `COc1cc2c(cc1OCCCN1CCN(CCCOc3cc4c(cc3OC)C(=O)N3CC(F)(F)C[C@H]3C=N4)CC1)N=C[C@@H]1CC(F)(F)CN1C2=O`, for which the GI50 is 2.2 µM in [1]; 3.17 µM in [2]; 3.05 µM in assay [3]; 4.55 µM in [4]; 11.4 µM in assay [5]; 1.14 µM in assay [6]. Besides, the GI50 in assay [7] was 0.882 µM; in assay [8], 2.8 µM; in assay [9] it was 7.32 µM; in assay [10], 2.61 µM. For the same molecule, the TGI in [1] is 7.73 µM; in assay [2] it was 6.07 µM; in [3], 9.15 µM; in assay [4] it was 16.8 µM; in assay [5], 25.7 µM; in [6], 3.86 µM. For the same molecule, the TGI amounted to 11.4 µM in assay [7], 6.34 µM in assay [8], 43 µM in assay [9] and 12.5 µM in [10].
Regarding `C[C@H](CCOc1cccc(CC(=O)O)c1)N(Cc1cccc(C(F)(F)F)c1Cl)CC(c1ccccc1)c1ccccc1`, the GI50 is 3.48 µM in assay [1]; 6.26 µM in assay [2]; 6.14 µM in assay [3]; 4.5 µM in assay [4]; 2.36 µM in assay [5]; 4.51 µM in assay [6]. Further, the GI50 in assay [7] was 5.51 µM; in assay [8], 7.39 µM; in assay [9], 3.94 µM; in [10], 5.28 µM. The TGI amounted to 22.1 µM in assay [1]; 26.4 µM in [2]; 20.4 µM in assay [3]; 19.2 µM in [4]; 14.7 µM in assay [5]; 22.3 µM in assay [6]. Moreover, the TGI in assay [7] came out at 51.6 µM; in [8] it was 21.7 µM; in assay [9], 18.9 µM; in [10], 20.7 µM.
Consider `Nc1c(C(=O)Nc2ccccn2)sc2nc3c(cc12)C(=O)CCC3`, for which the GI50 in [1] was 3.24 µM; in assay [2] it was 1.75 µM; in assay [3] it was 1.17 µM; in assay [4], 3.29 µM; in [5], 9.45 µM; in [6] it was 0.595 µM. Moreover, the GI50 is 2.75 µM in [7], 13.1 µM in assay [8], 1.78 µM in [9] and 0.706 µM in [10]. Further, the TGI was > 100 µM in assay [1]; > 100 µM in assay [2]; 5.65 µM in assay [3]; > 100 µM in assay [4]; > 100 µM in assay [5]; > 100 µM in [6]. The TGI in assay [7], in assay [8], in assay [9] and in assay [10] was > 100 µM in each case.
In the case of `CN(Cc1cnc2nc(N)nc(N)c2n1)c1ccc(C(=O)N[C@@H](CCS(=O)(=O)O)C(=O)O)cc1`, the TGI in [1], in assay [2], in assay [3], in [4], in assay [5] and in assay [6] was > 100 µM throughout. For the same molecule, the TGI in [7], in assay [8], in assay [9] and in assay [10] was > 100 µM throughout.
As for `COc1c2occc2c(N)c2ccc(=O)oc12`, the TGI in [1], in assay [2], in assay [3], in assay [4], in assay [5] and in assay [6] was > 100 µM in each case. The TGI in [7], in assay [8], in assay [9] and in assay [10] was > 100 µM in each case.
Regarding `C[N+](C)(C)CC(=O)N/N=C(/Cc1cc(=O)oc2cc(O)ccc12)C(=O)Nc1ccc(Cl)cc1`, the TGI in assay [1], in assay [2], in assay [3], in assay [4], in assay [5] and in [6] was > 100 µM each time. Further, the TGI in assay [7], in assay [8], in assay [9] and in assay [10] was > 100 µM throughout.
Regarding `CSC[C@H](NC(=O)COc1cccc2cnccc12)C(=O)NC(Cc1ccccc1)C(O)C(=O)N1CSC[C@H]1C(=O)NC(C)(C)C` (stereo partly specified), the TGI was > 100 µM in [1]; > 100 µM in [2]; 31.4 µM in assay [3]; > 100 µM in assay [4]; > 100 µM in assay [5]; > 100 µM in [6]. Moreover, the TGI in assay [7], in assay [8], in [9] and in assay [10] was > 100 µM throughout.
For the molecule `O=C(Nc1ncc(Cc2cccc(C(F)(F)F)c2)s1)c1ccc2c(c1)OCCO2`, the GI50 in assay [1] was 0.483 µM; in [2], 0.615 µM; in assay [3] it was 0.251 µM; in [4] it was 0.474 µM; in [5], 1.09 µM; in [6], 0.196 µM. The GI50 in assay [7] is 0.21 µM; in assay [8] it was 0.569 µM; in assay [9], 0.451 µM; in assay [10], 0.352 µM. Besides, the TGI was > 100 µM in assay [1]; > 40.9 µM in assay [2]; 0.916 µM in assay [3]; > 57.6 µM in [4]; > 100 µM in [5]; > 100 µM in assay [7]. Moreover, the TGI is > 60.9 µM in [8], > 100 µM in assay [9] and > 100 µM in assay [10].
On to `O=Cc1cc2c(cc1-c1cc3c(cc1C=O)OCO3)OCO2`, for which the TGI in assay [1], in assay [2], in [3], in assay [4], in [5] and in [6] was > 100 µM throughout. In addition, the TGI in assay [7] is 71 µM; in assay [8], > 100 µM; in [9], > 100 µM; in assay [10] it was > 100 µM.
Turning to `Nc1nc(Cl)nc2c1ncn2C1CC(O)C(CO)O1` (stereo unspecified), the TGI was > 100 µM in [1]; 6.8 µM in assay [2]; 76.8 µM in assay [3]; 4.78 µM in [4]; 8.76 µM in assay [5]; > 100 µM in [6]. Moreover, the TGI in assay [7], in assay [8], in assay [9] and in [10] was > 100 µM in each case. Besides, the GI50 in [7] was 5.66 µM.
On to `CCCCNCCCNCCCNC(=O)c1csc(-c2csc(CCNC(=O)C(NC(=O)C(C)C(O)C(C)NC(=O)C(NC(=O)c3nc(C(CC(N)=O)NCC(N)C(N)=O)nc(N)c3C)C(OC3OC(CO)C(O)C(O)C3OC3OC(CO)C(O)C(OC(N)=O)C3O)c3cnc[nH]3)C(C)O)n2)n1` (stereo unspecified), for which the GI50 in assay [1] was 19.7 µM; in assay [2] it was 0.109 µM; in [3], 0.0449 µM; in assay [4], 0.269 µM; in [7] it was 7.28 µM; in [8] it was 0.697 µM. For the same molecule, the GI50 was 1.13 µM in assay [9] and 11 µM in assay [10]. Besides, the TGI was > 100 µM in [1]; 8.65 µM in assay [2]; 0.357 µM and 0.235 µM in assay [3]; 7.42 µM and 2.2 µM in assay [4]; 15.8 µM and 3.81 µM in [5]; 7.96 µM and 10.1 µM in assay [6]. The TGI in [7] is 50 µM and > 100 µM; in assay [8], 16.9 µM; in assay [9] it was 10.3 µM and 22.9 µM; in [10] it was 50 µM and > 100 µM.
`Cc1cccc(NC2=C(Cl)C(=O)c3nc(C)ccc3C2=O)c1`: the GI50 was 1.48 µM in [1]; 0.529 µM in assay [2]; 1.39 µM in assay [3]; 0.512 µM in assay [4]; 1.29 µM in assay [5]; 1.81 µM in assay [6]. Also, the GI50 in [7] was 1.22 µM; in assay [8], 1.65 µM; in [9] it was 2.18 µM; in [10] it was 1.64 µM. For the same molecule, the TGI in [1] amounted to 5.17 µM; in assay [2], 2.88 µM; in assay [3], 2.75 µM; in assay [4], 2.13 µM; in [5] it was 2.59 µM; in assay [6] it was 4.88 µM. In addition, the TGI was > 100 µM in assay [7], 3.07 µM in assay [8], 6.11 µM in [9] and 4.27 µM in [10].
